Drawing on ChEMBL document CHEMBL2074105, “The potential for an interaction between MRP2 (ABCC2) and various therapeutic agents: probenecid as a candidate inhibitor of the biliary excretion of irinotecan metabolites” (Drug Metabol Pharmacokin, 2002), this text covers Ki for ten compounds.

One may read the Ki as the equilibrium dissociation constant of an inhibitor or competing ligand from its target. Read a high Ki as a looser hold on the target.

Assay [1] has as its target T1, ATP-binding cassette sub-family C member 2 (Rattus norvegicus, UniProt Q63120). In words: TP_TRANSPORTER: inhibition of DNP-SG uptake in bile canalicular membrane vesicles from SD rat. Format: functional, cell membranes, Sprague-Dawley, Bile canalicular membrane vesicle.
In assay [2] the target is T1, ATP-binding cassette sub-family C member 2. In words: TP_TRANSPORTER: inhibition of DNP-SG uptake in blie canalicular membrane vesicle from SD rat. The assay is classed as functional, cell membranes, Sprague-Dawley, Bile canalicular membrane vesicle.
Assay [3] has as its target ATP-binding cassette sub-family C member 2 (Rattus norvegicus) (UniProt Q63120). The experiment in a line: TP_TRANSPORTER: inhibition of SN-38 uptake in bile canalicular membrane vesicles.
Assay [4] deals with T1, ATP-binding cassette sub-family C member 2. The experiment in a line: TP_TRANSPORTER: inhibition of SN-38 uptake in bile canalicular membrane vesicles from SD rat. Format: functional, cell membranes, Sprague-Dawley, Bile canalicular membrane vesicle.

T1 sequence (Q63120 whole entry): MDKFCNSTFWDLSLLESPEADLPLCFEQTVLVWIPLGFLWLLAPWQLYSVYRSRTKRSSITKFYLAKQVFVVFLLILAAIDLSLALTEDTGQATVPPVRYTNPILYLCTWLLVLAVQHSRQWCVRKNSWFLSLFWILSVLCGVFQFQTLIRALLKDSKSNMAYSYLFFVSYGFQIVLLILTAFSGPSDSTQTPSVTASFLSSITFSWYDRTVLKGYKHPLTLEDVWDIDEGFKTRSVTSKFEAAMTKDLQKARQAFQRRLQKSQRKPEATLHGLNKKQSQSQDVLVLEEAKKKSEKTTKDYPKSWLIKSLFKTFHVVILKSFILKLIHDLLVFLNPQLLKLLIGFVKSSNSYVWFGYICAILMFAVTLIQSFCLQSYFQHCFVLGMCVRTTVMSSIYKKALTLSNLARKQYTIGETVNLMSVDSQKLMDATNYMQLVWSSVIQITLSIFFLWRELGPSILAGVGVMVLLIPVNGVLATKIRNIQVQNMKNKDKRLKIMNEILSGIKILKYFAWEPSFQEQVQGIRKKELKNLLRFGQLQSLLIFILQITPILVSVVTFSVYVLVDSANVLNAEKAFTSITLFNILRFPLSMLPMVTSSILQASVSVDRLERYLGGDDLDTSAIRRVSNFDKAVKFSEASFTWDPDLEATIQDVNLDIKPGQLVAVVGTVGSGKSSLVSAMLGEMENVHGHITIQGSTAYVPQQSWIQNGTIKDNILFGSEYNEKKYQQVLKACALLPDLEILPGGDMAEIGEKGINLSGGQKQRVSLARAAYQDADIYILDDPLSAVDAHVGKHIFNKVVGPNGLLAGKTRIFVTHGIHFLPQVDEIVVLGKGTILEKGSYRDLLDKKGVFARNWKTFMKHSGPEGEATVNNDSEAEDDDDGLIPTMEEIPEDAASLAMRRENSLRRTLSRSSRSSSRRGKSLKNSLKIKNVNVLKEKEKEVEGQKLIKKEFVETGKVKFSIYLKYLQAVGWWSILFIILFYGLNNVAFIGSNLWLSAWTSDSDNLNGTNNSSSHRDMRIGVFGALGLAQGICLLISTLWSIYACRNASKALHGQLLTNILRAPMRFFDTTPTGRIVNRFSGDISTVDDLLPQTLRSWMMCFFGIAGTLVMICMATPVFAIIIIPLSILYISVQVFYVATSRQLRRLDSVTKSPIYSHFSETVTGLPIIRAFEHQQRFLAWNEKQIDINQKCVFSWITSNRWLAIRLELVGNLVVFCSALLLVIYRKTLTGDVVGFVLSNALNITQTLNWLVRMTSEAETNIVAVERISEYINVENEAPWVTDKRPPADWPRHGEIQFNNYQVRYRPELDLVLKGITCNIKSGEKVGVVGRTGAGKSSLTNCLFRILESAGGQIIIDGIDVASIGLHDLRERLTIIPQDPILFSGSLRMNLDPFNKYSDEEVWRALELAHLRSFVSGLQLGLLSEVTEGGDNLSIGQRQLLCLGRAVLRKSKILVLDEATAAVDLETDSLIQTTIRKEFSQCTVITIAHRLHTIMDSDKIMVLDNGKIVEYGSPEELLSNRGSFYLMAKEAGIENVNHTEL
Sequence of ATP-binding cassette sub-family C member 2 (Rattus norvegicus) (Q63120 whole entry, looked up): as the sequence (Q63120 whole entry) above

Consider `CC1(C)C(/C=C/C=C/C=C/C=C2\N(CCCCS(=O)(=O)O)c3ccc4ccccc4c3C2(C)C)=[N+](CCCCS(=O)(=O)[O-])c2ccc3ccccc3c21` [INDOCYANINE GREEN], for which, in assay [1], the affinity, expressed as Ki, was 1 µM.

`O=C(O)[C@H]1O[C@@H](Oc2cc3oc(-c4ccccc4)cc(=O)c3c(O)c2O)[C@H](O)[C@@H](O)[C@@H]1O` [BAICALIN] yielded a Ki in assay [1] of 7.95 µM.

For CREMOPHOR EL, the Ki in assay [1] turned out to be 281 µM. Against the preceding compound, the Ki is about 35-fold higher.

Turning to `CCCN(CCC)S(=O)(=O)c1ccc(C(=O)O)cc1` [PROBENECID], the Ki in assay [2] worked out at 44.6 µM; in assay [3], 42.2 µM.

Take `O=C1OC(c2ccc(O)c(S(=O)(=O)O)c2)(c2ccc(O)c(S(=O)(=O)O)c2)c2c(Br)c(Br)c(Br)c(Br)c21` [SULFOBROMOPHTHALEIN SODIUM]: the inhibition constant Ki in assay [4] was 2.87 µM; in assay [1], 2.18 µM.

Consider `CC1(C)[C@@H](O[C@H]2O[C@H](C(=O)O)[C@@H](O)[C@H](O)[C@H]2O[C@@H]2O[C@H](C(=O)O)[C@@H](O)[C@H](O)[C@H]2O)CC[C@]2(C)[C@H]3C(=O)C=C4[C@@H]5C[C@@](C)(C(=O)O)CC[C@]5(C)CC[C@@]4(C)[C@]3(C)CC[C@@H]12` [GLYCYRRHIZIN], for which the figures for the Ki in assay [4] and in assay [1] were 1.91 µM and 0.84 µM, respectively.

As to `CO/N=C(\C(=O)N[C@@H]1C(=O)N2C(C(=O)O)=C(CSc3nc(C)c(CC(=O)O)s3)CS[C@H]12)c1csc(N)n1` [CEFODIZIME], affinity in assay [1] was put at a Ki of 10 µM.

`O=C(Nc1cccc2c(=O)cc(-c3nnn[nH]3)oc12)c1ccc(OCCCCc2ccccc2)cc1` [PRANLUKAST] had a Ki in assay [1] of 41.1 µM. This Ki lies about 4.1-fold higher than the previous one.

Take `Nc1nc2c(c(=O)[nH]1)N(C=O)C(CNc1ccc(C(=O)N[C@@H](CCC(=O)O)C(=O)O)cc1)CN2` (stereo partly drawn) [LEUCOVORIN]: the Ki in assay [1] was found to be 132 µM.

Regarding `N[C@@H](CCC(=O)N[C@@H](CSc1c(Br)c(Br)c2c(c1Br)C(=O)OC2(c1ccc(O)c(S(=O)(=O)O)c1)c1ccc(O)c(S(=O)(=O)O)c1)C(=O)NCC(=O)O)C(=O)O`, the Ki in assay [1] amounted to 0.0461 µM.
